{"source": "paper PMC5603603", "about": "“Linoleic and palmitoleic acid block streptokinase-mediated plasminogen activation and reduce severity of invasive group A streptococcal infection” (Scientific Reports, 2017)", "key": {"[1]": {"biological_target": "T1, cluster 2a type streptokinase (Streptococcus pyogenes, UniProt A0A288R465)", "parameters": "species or system group A streptococcal strain A614", "conditions": "cell-based, cluster 2a", "description": "The pellet from a mid-log phase culture of the strain A614 (cluster 2a type) or A314 (cluster 2b type) was washed twice with PBS and bacteria were adjusted to an OD600 of 1.0 in HEPES-buffer (10 mM HEPES, 150 mM NaCl, 0.01% Tween 20, pH 7.4). 90 µl of bacterial cells, plasminogen (final concentration 6.7 µg/ml per well) and fibrinogen (final concentration 1 µM per well) were pre-mixed. Then inhibitory compounds (LA, PA, oleic, myristic, stearic, palmitic, arachidonic, arachidic, linolenic acid, TXA or EACA) were added. Stocks of LA and PA were prepared in methanol and then diluted in PBS. Stocks of arachidic, oleic, arachidonic, myristic, palmitic, stearic and linolenic acid were prepared in 60% DMSO/PBS and then diluted in PBS. The untreated control received the same amount of PBS as in case of TXA and EACA as control or the same amount of methanol diluted in PBS as in case of LA and PA, respectively, or the same amount of DMSO diluted in PBS as in case of the other commercially available fatty acids. Then 50 µl of the respective supernatant (supernatant from the strain A614 if cells from A614 were used, supernatant from the strain A314 were used in case of cells from the GAS strain A314) and 3.75 µl 10 mM S-2251 (Chromogenix) were added. The assay was incubated at 37 °C and measured at the beginning of the reaction and then every hour at 405 nm after 3 sec of shaking on a Tecan Sunrise ELISAReader using Magellan software. Each experiment was repeated three times. IC50 values were calculated using Microsoft® Excel software."}, "[2]": {"biological_target": "cluster 1 type streptokinase (Streptococcus pyogenes, UniProt P10520)", "sequence (P00747 20-810)": "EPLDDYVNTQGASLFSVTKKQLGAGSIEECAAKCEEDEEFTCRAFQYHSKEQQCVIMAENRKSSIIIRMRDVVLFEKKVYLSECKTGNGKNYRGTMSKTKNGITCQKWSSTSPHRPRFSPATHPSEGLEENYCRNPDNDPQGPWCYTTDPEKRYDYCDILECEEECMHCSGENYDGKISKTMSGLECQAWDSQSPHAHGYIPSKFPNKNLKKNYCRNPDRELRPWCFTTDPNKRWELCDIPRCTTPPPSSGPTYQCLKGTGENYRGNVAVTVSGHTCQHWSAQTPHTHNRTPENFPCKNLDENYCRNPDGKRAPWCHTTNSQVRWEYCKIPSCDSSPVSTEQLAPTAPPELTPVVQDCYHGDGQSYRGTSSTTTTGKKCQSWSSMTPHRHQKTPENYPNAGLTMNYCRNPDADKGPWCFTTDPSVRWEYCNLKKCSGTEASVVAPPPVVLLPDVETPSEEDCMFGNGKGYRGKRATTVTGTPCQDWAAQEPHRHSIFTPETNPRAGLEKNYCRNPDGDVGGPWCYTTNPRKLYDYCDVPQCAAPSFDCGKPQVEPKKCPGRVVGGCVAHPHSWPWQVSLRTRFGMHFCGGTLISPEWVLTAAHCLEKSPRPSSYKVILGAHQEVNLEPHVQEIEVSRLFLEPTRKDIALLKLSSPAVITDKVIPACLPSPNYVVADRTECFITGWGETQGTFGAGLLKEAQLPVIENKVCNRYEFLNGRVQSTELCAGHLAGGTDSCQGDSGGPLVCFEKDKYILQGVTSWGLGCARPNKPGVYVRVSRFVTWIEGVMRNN", "sequence (P10520 27-440)": "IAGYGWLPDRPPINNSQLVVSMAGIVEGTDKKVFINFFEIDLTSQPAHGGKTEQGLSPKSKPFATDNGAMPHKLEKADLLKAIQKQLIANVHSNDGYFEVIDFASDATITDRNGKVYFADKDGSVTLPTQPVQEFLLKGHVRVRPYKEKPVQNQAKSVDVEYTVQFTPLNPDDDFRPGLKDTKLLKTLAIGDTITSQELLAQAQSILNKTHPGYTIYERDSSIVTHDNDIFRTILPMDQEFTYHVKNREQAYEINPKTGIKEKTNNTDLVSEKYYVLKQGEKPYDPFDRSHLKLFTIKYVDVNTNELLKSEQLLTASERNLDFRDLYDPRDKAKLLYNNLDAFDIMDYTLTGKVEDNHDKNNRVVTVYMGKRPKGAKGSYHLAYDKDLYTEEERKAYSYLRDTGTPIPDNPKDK", "type": "biochemical, group A streptococcal strain A328", "conditions": "supernatant-based, cluster 1; for effect on plasminogen activation: concentrations up to 100 µg/ml (around 320–437 µM)", "description": "An overnight culture of the strain A328 (cluster 1 type) or A614 (cluster 2a type) was diluted 1:10 in pre-warmed THY medium and grown to an OD600 of around 0.5 at 37 °C. […] The pellet was resuspended in Tris-HCl buffer (50 mM Tris pH 7.5). Then inhibitory compounds (LA, PA, oleic, myristic, stearic, palmitic, arachidonic, arachidic, linolenic acid, TXA or EACA) were added. Stocks of TXA and EACA were prepared in PBS. Stocks of LA and PA were prepared in methanol and then diluted in PBS. Stocks of arachidic, oleic, arachidonic, myristic, palmitic, stearic and linolenic acid were prepared in 60% DMSO/PBS and then diluted in PBS. The untreated control received the same amount of PBS as in case of TXA and EACA as control or the same amount of methanol diluted in PBS as in case of LA and PA, respectively, or the same amount of DMSO diluted in PBS as in case of the other commercially available fatty acids. […] The assay was run at 37 °C. The absorption was measured at the beginning of the reaction and then every hour at 405 nm after 3 sec of shaking on a Tecan Sunrise ELISAReader using Magellan software. Each experiment was repeated three times. IC50 values were calculated using Microsoft® Excel software."}, "[3]": {"biological_target": "T1, cluster 2a type streptokinase", "assay": "biochemical", "type": "biochemical, group A streptococcal strain A614", "conditions": "for IC50: supernatant-based, cluster 2a"}, "[4]": {"biological_target": "cluster 2b type streptokinase (Streptococcus pyogenes, UniProt P10520)", "parameters": "species or system group A streptococcal strain A314", "conditions": "cell-based, cluster 2b; for effect on plasminogen activation: concentrations up to 100 µg/ml (around 320–437 µM)", "description": "Then inhibitory compounds (LA, PA, oleic, myristic, stearic, palmitic, arachidonic, arachidic, linolenic acid, TXA or EACA) were added. Stocks of LA and PA were prepared in methanol and then diluted in PBS. Stocks of arachidic, oleic, arachidonic, myristic, palmitic, stearic and linolenic acid were prepared in 60% DMSO/PBS and then diluted in PBS. The untreated control received the same amount of PBS as in case of TXA and EACA as control or the same amount of methanol diluted in PBS as in case of LA and PA, respectively, or the same amount of DMSO diluted in PBS as in case of the other commercially available fatty acids. […] The assay was incubated at 37 °C and measured at the beginning of the reaction and then every hour at 405 nm after 3 sec of shaking on a Tecan Sunrise ELISAReader using Magellan software. Each experiment was repeated three times. IC50 values were calculated using Microsoft® Excel software."}, "[5]": {"conditions": "read-out: inhibition of plasminogen activation"}}, "note": "Read-outs that look alike come from different tables or passages of the source.", "data": [{"smiles": "NC[C@H]1CC[C@H](C(=O)O)CC1", "note": "[TXA, tranexamic acid, reference compound]", "values": [{"measurement": "IC50", "setting": "[1]", "value": 100, "unit": "mM"}, {"measurement": "IC50", "setting": "[2]", "value": "> 100", "unit": "mM"}, {"measurement": "IC50", "setting": "[3]", "value": "> 100", "unit": "mM"}]}, {"smiles": "CCCCCCCCCCCCCCCC(=O)O", "note": "[palmitic acid]", "values": [{"measurement": "effect on plasminogen activation", "setting": "[4]", "value": "unspecific marginal inhibitory effects"}]}, {"smiles": "NCCCCCC(=O)O", "note": "[EACA, ε-amino caproic acid, reference compound]", "values": [{"measurement": "IC50", "setting": "[1]", "value": "> 100", "unit": "mM"}, {"measurement": "IC50", "setting": "[4]", "value": 100, "unit": "mM"}, {"measurement": "IC50", "setting": "[2]", "value": "> 100", "unit": "mM"}, {"measurement": "IC50", "setting": "[3]", "value": "> 100", "unit": "mM"}]}, {"smiles": "CCCCC/C=C\\C/C=C\\C/C=C\\C/C=C\\CCCC(=O)O", "note": "[arachidonic acid, reference compound]", "values": [{"measurement": "effect on plasminogen activation", "setting": "[4]", "value": "no effect"}, {"measurement": "effect on plasminogen activation", "setting": "[2]", "value": "no effect"}]}, {"smiles": "CC/C=C\\C/C=C\\C/C=C\\CCCCCCCC(=O)O", "note": "[linolenic acid, reference compound]", "values": [{"measurement": "effect on plasminogen activation", "setting": "[4]", "value": "no effect"}, {"measurement": "inhibition at 359 µM", "setting": "[3]; [5]", "value": 30, "unit": "%"}]}, {"smiles": "CCCCCCCC/C=C\\CCCCCCCC(=O)O", "note": "[oleic acid]", "values": [{"measurement": "effect on plasminogen activation", "setting": "[1]; concentrations up to 100 µg/ml (around 320–437 µM)", "value": "not active"}, {"measurement": "effect on plasminogen activation", "setting": "[4]", "value": "no effect"}, {"measurement": "inhibition at 354 µM", "setting": "[3]; [5]", "value": "~45", "unit": "%"}]}, {"smiles": "CCCCCCCCCCCCCC(=O)O", "note": "[myristic acid, reference compound]", "values": [{"measurement": "effect on plasminogen activation", "setting": "[4]", "value": "no effect"}, {"measurement": "effect on plasminogen activation", "setting": "[2]", "value": "no effect"}]}, {"smiles": "CCCCCCCCCCCCCCCCCC(=O)O", "note": "[stearic acid]", "values": [{"measurement": "effect on plasminogen activation", "setting": "[4]", "value": "unspecific marginal inhibitory effects"}]}]}
